Data published in patent US9162977B2, “Synthetic ion channels” (The University of Hong Kong, priority 2006, dated 2015).
“Also recorded” adds a separate entry of the source. Values belong to the compound of their own block, whether it stands above or below them.

What was measured:
[1] = system: human embryonic kidney (HEK 293) cells; assay: Whole-cell patch-clamp recording of chloride currents; assay type: cell-based
Method: The whole-cell configuration of the patch-clamp technique was used to examine the electrophysiological properties of the ionic currents induced by Example 2 in human embryonic kidney (HEK 293) cells. HEK 293 cell line originally obtained from the American Type Culture Collection, were cultured in DMEM supplemented with 10% FBS and 100 IU/ml penicillin G and 0.1 mg/ml streptomycin. Cells were grown at 37° C. in a 5% CO2 humidified incubator. Whole-cell chloride currents were recorded by using an EPC 9 patch clamp amplifier (HEKA Elektronik, Lambrecht/Pfalz, Germany) in voltage-clamp mode, controlled by Pulse/PulseFit 8.7 software (HEKA). Patch pipettes (resistance, 3-5 MΩ) were filled with a solution internal pipette solution containing CsCl 140, MgCl2 1, HEPES 10, EGTA 5, Na2ATP 5 (in mmol/L, pH 7.2 with CsOH). The bath solution contained NaCl 140, CsCl 5, CaCl2 1, MgCl2 1, HEPES 10 (in mmol/L, pH 7.4 with CsOH). After gigaohm seals were obtained, the membrane was ruptured with a pulsed negative pressure. Pipette and membrane capacitance were automatically compensated. Series resistance was typically compensated by 70%. […] All macroscopic currents were sampled at 50 kHz and filtered at 5 kHz, and data were analyzed with PulseFit (HEKA). Changes of Cl current were detected from the same cells before and after exposure to the bath solution containing Example 2 at the concentration of 50 nM. […]

[2] = Single-channel recording by patch-clamp on giant liposomes; assay type: biochemical
From the text: Single-channel recording, using patch clamp techniques, is the most critical test for identifying ion channel formation, which is distinguished from other ion transport mechanisms such as ion carriers, and quantifying ion transport efficiency of a membrane channel. The channel-forming activity of Example 2 incorporated in lipid bilayers is examined using patch-clamp technique on giant liposomes.
The two key properties of ion channels in nature are ion selectivity, that is, a channel permits only certain ionic species to flow through its pore, and gating referring to the mechanism of channel opening and closing.

[3] = pH-stat fluorometric transport assay (HPTS-loaded liposomes); assay type: biochemical
From the text: This Example illustrates that the compound of Example 2 mediates chloride release when incorporated into liposomes. The liposome-based pH-stat fluorometric assay is an assay routinely used for identification of physiologically relevant ionophores, which are disclosed in (a) Deng, G., Dewa, T. and Regen, S. L. J. Am. Chem. Soc. 1996, 118, 8975; (b) Schlesinger, P. H., Ferdani, R., Liu, J., Pajewska, J., Pajewski, R., Saito, M., Shabany, H. and Gokel, G. W. J. Am. Chem. Soc. 2002, 124, 1848; (c) Sidorov, V., Kotch, F. W., Abdrakhmanova, G., Mizani, R., Fettinger, J. C. and Davis, J. T. J. Am. Chem. Soc. 2002, 124, 2267; (d) Sidorov, V., Kotch, F. W., Kuebler, J. L., Lam, Y.-F. and Davis, J. T. J. Am. Chem. Soc. 2003, 125, 2840; and (e) Baumeister, B., Sakai, N. and Matile, S. Angew. Chem., Int. Ed. 2000, 39, 1955, all of which are incorporated herein by reference. For example, in this assay, a controlled amount of the base and potential ionophore is added to a suspension of liposomes containing a pH-sensitive dye, 8-hydroxypyrene-1,3,6-trisulfonate (HPTS, pyranine). The resulting pH gradient across the bilayer membrane causes the efflux of hydronium ions or the influx of hydroxide ions and builds up an electrostatic potential. This potential can be compensated by the efflux of anions or influx of cations (H^+/M^+ or OH^−/A^− antiport and H^+/A^− or M^+/OH^− symport mechanisms are possible). If the compound of interest mediates such ion transport, the efflux of hydronium ions or the influx of hydroxide ions continues altering the […] pH and the fluorescence of the reporter dye.
Example 2-mediated chloride release was determined in large unilamellar vesicles (LUVs) of 100 nm average dimension, as reported in Sidorov, V., Kotch, F. W., Abdrakhmanova, G., Mizani, R., Fettinger, J. C. and Davis, J. T. J. Am. Chem. Soc. 2002, 124, 2267. […] Importantly, Example 2 mediated electrolyte exchange with high anion selectivity. It mediated electrolyte exchange in the presence of chloride but not in the presence of sulfate (see FIG. 6).

melting point: 57 to 59 °C
SMILES: CC(C)C[C@@H](ONC(=O)c1cccc(C(=O)NO[C@H](CC(C)C)C(=O)OC(C)(C)C)c1)C(=O)OC(C)(C)C [Example 1]

melting point: 137 to 139 °C
SMILES: CC(C)CNC(=O)[C@H](CC(C)C)OC(=O)c1cccc(C(=O)O[C@@H](CC(C)C)C(=O)NCC(C)C)c1 [Example 9]

melting point: 240 to 242 °C
SMILES: CC(C)CNC(=O)[C@H](CC(C)C)NC(=O)c1cccc(C(=O)N[C@@H](CC(C)C)C(=O)NCC(C)C)c1 [Example 8]

melting point: 88 to 90 °C
SMILES: CCCCCCCCCCCCCCCCCCNC(=O)[C@@H](CC(C)C)ONC(=O)c1cccc(C(=O)NO[C@H](CC(C)C)C(=O)NCCCCCCCCCCCCCCCCCC)c1 [Example 5]

melting point: 175 to 177 °C
SMILES: CC(C)CNC(=O)[C@@H](CC(C)C)ONC(=O)c1cccc(C(=O)NO[C@H](CC(C)C)C(=O)NCC(C)C)n1 [Example 7]

melting point: 176 to 178 °C
SMILES: CC(C)CNC(=O)[C@@H](CC(C)C)ONC(=O)c1cccc(C(=O)NO[C@H](CC(C)C)C(=O)NCC(C)C)c1 [Example 2]
whole cell (chloride) currents ([1]; 50 nM in bath solution, room temperature, FIG. 9): dramatically increases cell chloride currents; also recorded: large increase | induced whole cell currents in the presence of an anion transport inhibitor ([1]; in the presence of DIDS): not reduced | change in conductance or reversal potential ([2]; NMDG-Cl in the bath solution replaced by KCl): no measurable change | ion selectivity of the channels formed ([2]; giant liposomes, patch clamp): chloride selectivity; also recorded: anion selective | gating of the channels formed ([2]; giant liposomes, patch clamp, FIG. 8): voltage dependent gating; also recorded: voltage-gated | primary single-channel conductance ([2]; symmetric 0.2 M N-methyl-glucamine hydrochloride (NMDG-Cl) solutions, compound in bath solution, FIG. 8): 54 pS | channel open probability (Po) and frequency ([2]; upon increasing voltages of lipid bilayers within a physiologically relevant range, FIG. 8): enhanced steeply | exchange between extra- and intravesicular electrolytes (chloride release) ([3]; LUVs of 100 nm, NaCl extra- and intravesicular buffers, FIG. 5): rapid, concentration-dependent exchange | transport activity in LUVs loaded with sulfate ([3]; LUVs symmetrically loaded with Na2SO4, FIG. 6): no transport activity was detected | chloride transport across lipid bilayers of chloride-containing liposomes ([3]; LUVs, NaCl extra- and intravesicular buffers, FIG. 7 and FIG. 12): mediates chloride transport across the bilayer

melting point: 130 to 132 °C
SMILES: CC(C)CNC(=O)[C@@H](CC(C)C)ONC(=O)c1ccccc1 [Example 6]
